The assay concerns production of TNF by monocytes activated with bacterial lipopolysaccharide (LPS). The experiment in a line: Lipopolysaccharide-activated monocyte TNF production assay. Type of assay: cell-based. The note with it: Homo sapiens, read-out: IC50 values in the monocyte assay (LPS induced TNF release). On the procedure:
Lipopolysaccharide-Activated Monocyte TNF Production Assay
Test compounds were evaluated in vitro for the ability to inhibit the production of TNF by monocytes activated with bacterial lipopolysaccharide (LPS). Fresh residual source leukocytes (a byproduct of plateletpheresis) were obtained from a local blood bank, and peripheral blood mononuclear cells (PBMCs) were isolated by density gradient centrifugation on Ficol-Paque Plus (Pharmacia). PBMCs were suspended at 2×10^6/ml in DMEM supplemented to contain 2% FCS, 10 mM, 0.3 mg/ml […], 100 U/ml penicillin G and […] streptomycin sulfate (complete media). Cells were plated into Falcon flat bottom, 96 well culture plates (200 μl/well) and cultured overnight at 37° C. and 6% CO2. Non-adherent cells were removed by washing with 200 μl/well of fresh medium. Wells containing adherent cells (˜70% monocytes) were replenished with 100 μl of fresh medium.
Preparation of Test Compound Stock Solutions
Test compounds were dissolved in […]. Compound stock solutions were prepared to an initial concentration of […]. Stocks were diluted initially to 20-200 μM in complete media. Nine two-fold serial dilutions of each compound were then prepared in complete medium.
Treatment of Cells with Test Compounds and Activation of TNF Production with Lipopolysaccharide
One hundred microliters of each test compound dilution were added to microtiter wells containing adherent monocytes and 100 μl complete medium. Monocytes were cultured with test compounds for 60 min at which time 25 μl of complete medium containing 30 ng/ml lipopolysaccharide from E. coli K532 were added to each well. Cells were cultured an additional 4 hrs. Culture supernatants were then removed and TNF presence in the supernatants was quantified using an ELISA.
Flat bottom, 96 well Corning High Binding ELISA plates were coated overnight (4° C.) with 150 μL/well of 3 μg/ml murine anti-human TNF-α MAb (R&D Systems #MAB210). Wells were then blocked for 1 hr at room temperature with 200 μL/well of CaCl2-free ELISA buffer supplemented to contain 20 mg/ml BSA (standard ELISA buffer: […], 150 mM NaCl, 2 mM CaCl2, 0.15 mM thimerosal, pH 7.4). Plates were washed and replenished with 100 μl of test supernatants (diluted 1:3) or standards. Standards consisted of eleven 1.5-fold serial dilutions from a stock of 1 ng/ml recombinant human TNF (R&D Systems). Plates were incubated at room temperature for 1 hr on orbital shaker (300 rpm), washed and replenished with 100 μl/well of 0.5 ug/ml goat anti-human TNF-α (R&D systems #AB-210-NA) biotinylated at a 4:1 ratio. Plates were incubated for 40 min, washed and replenished with 100 μl/well of alkaline phosphatase-conjugated streptavidin (Jackson ImmunoResearch #016-050-084) at 0.02 ug/ml. Plates were incubated 30 min, washed and replenished with 200 μl/well of 1 mg/ml of p-nitrophenyl phosphate. After 30 min, plates were read at 405 nm on a Vmax plate reader.
Standard curve data were fit to a second order polynomial and unknown TNF-α concentrations determined from their OD by solving this equation for concentration. TNF concentrations were then plotted vs. test compound concentration using a second order polynomial. This equation was then used to calculate the concentration of test compounds causing a 50% reduction in TNF production.

For the compound `Cc1ccc(C(F)(F)F)cc1NC(=O)c1ccc(C)c(-c2ccc3nc(N)ncc3c2)c1` [Example 365, 3-(2-amino-6-quinazolinyl)-4-methyl-N-(2-methyl-5-(trifluoromethyl)phenyl)benzamide], the half-inhibitory concentration (IC50) is at most 25 µM.

Regarding `CCN(CC)CCNC(=O)Nc1ccc(NC(=O)c2ccc(C)c(-c3cnc4nc(NC)ncc4c3)c2)cc1C(F)(F)F` [Example 188], the IC50 was at most 25 µM.

Turning to `CNc1ncc2cc(-c3cc(C(=O)Nc4cccc(C(F)(F)F)c4)c(F)cc3C)ccc2n1` [Example 38, 2-fluoro-4-methyl-5-(2-(methylamino)-6-quinazolinyl)-N-(3-(trifluoromethyl)phenyl)benzamide], the IC50 was at most 25 µM.

`COc1ccc(Cl)cc1NC(=O)Nc1ccc(-c2ccc3nc(N)ncc3c2)c(C)c1` [Example 520, N-(4-(2-amino-6-quinazolinyl)-3-methylphenyl)-N′-(5-chloro-2-(methyloxy)phenyl)urea]: the IC50 was at most 25 µM.

As to `Cc1ccc(C(=O)Nc2ccc(OC3CCN(C)CC3)c(C(F)(F)F)c2)cc1-c1ccc2nc(N)ncc2c1` [Example 123, 3-(2-amino-6-quinazolinyl)-4-methyl-N-(4-((1-methyl-4-piperidinyl)oxy)-3-(trifluoromethyl)phenyl)benzamide], the IC50 was at most 25 µM.

For the compound `Cc1ccc(C(=O)Nc2c(N(C)CCCN(C)C)ccc(C(F)(F)F)c2C)cc1-c1ccc2nc(N)ncc2c1` [Example 117, 3-(2-amino-6-quinazolinyl)-N-(6-((3-(dimethylamino)propyl)(methyl)amino)-2-methyl-3-(trifluoromethyl)phenyl)-4-methylbenzamide], the IC50 is at most 25 µM.

For the compound `CCN(CC)CCOc1cccnc1NC(=O)c1ccc(C)c(-c2ccc3nc(N)ncc3c2)c1` [Example 363, 3-(2-amino-6-quinazolinyl)-N-(3-((2-(diethylamino)ethyl)oxy)-2-pyridinyl)-4-methylbenzamide], the IC50 was at most 25 µM.

Take `Cc1ccc(C(=O)Nc2cccc(C#N)c2)cc1-c1ccc2nc(N)ncc2c1` [Example 429, 3-(2-amino-6-quinazolinyl)-N-(3-cyanophenyl)-4-methylbenzamide]: the IC50 was at most 25 µM.

For `Cc1ccc(C(=O)Nc2ccc(N3CCCC3)c(C(=O)N3CCCC3)c2F)cc1-c1ccc2nc(N)ncc2c1` [Example 428, 3-(2-amino-6-quinazolinyl)-N-(2-fluoro-4-(1-pyrrolidinyl)-3-(1-pyrrolidinylcarbonyl)phenyl)-4-methylbenzamide], the half-inhibitory concentration (IC50) was at most 25 µM.

With `Cc1cc(C)c(-c2ccc3nc(N)ncc3c2)c(C)c1NC(=O)c1cccc(C(F)(F)F)c1` [Example 224, N-(3-(2-amino-6-quinazolinyl)-2,4,6-trimethylphenyl)-3-(trifluoromethyl) benzamide], the concentration for half-maximal inhibition (IC50) was at most 25 µM.

In the case of `CC(C)c1cccc(C(=O)Nc2cc(-c3ccc4nc(N)ncc4c3)ccc2F)c1` [Example 491, N-(5-(2-amino-6-quinazolinyl)-2-fluorophenyl)-3-(1-methylethyl)benzamide], the concentration for half-maximal inhibition (IC50) is at most 25 µM.

For `CNc1ncc2cc(-c3cc(NC(=O)c4cc(OC)c(OC)c(OC)c4)ccc3C)cnc2n1` [Example 216, N-(4-methyl-3-(2-(methylamino)pyrido[2,3-d]pyrimidin-6-yl)phenyl)-3,4,5-tris(methyloxy)benzamide], the IC50 was at most 25 µM.

In the case of `Cc1ccc(C(=O)Nc2nc(C(C)(C)C)cs2)cc1-c1ccc2nc(N)ncc2c1` [Example 352, 3-(2-amino-6-quinazolinyl)-N-(4-(1,1-dimethylethyl)-1,3-thiazol-2-yl)-4-methylbenzamide], the IC50 was at most 25 µM.

In the case of `Cc1ccc(C(=O)Nc2ccc(C(F)(F)F)cc2N(C)CCCN(C)C)cc1-c1ccc2nc(N)ncc2c1` [Example 118, 3-(2-amino-6-quinazolinyl)-N-(2-((3-(dimethylamino)propyl)(methyl)amino)-4-(trifluoromethyl)phenyl)-4-methylbenzamide], the half-maximal inhibitory concentration (IC50) is at most 25 µM.

Turning to `Cc1ccc(C(=O)NCc2ccncc2)cc1-c1ccc2nc(N)ncc2c1` [Example 425, 3-(2-amino-6-quinazolinyl)-4-methyl-N-(4-pyridinylmethyl) benzamide], the half-inhibitory concentration (IC50) is at most 25 µM.

Consider `COc1ccc(Cl)cc1NC(=O)c1ccc(C)c(-c2ccc3nc(N)ncc3c2)c1` [Example 143, 3-(2-amino-6-quinazolinyl)-N-(5-chloro-2-(methyloxy)phenyl)-4-methylbenzamide], for which the IC50 is at most 25 µM.

For the compound `COc1ccc(C(F)(F)F)cc1NC(=O)c1ccc(C)c(-c2ccc3nc(N)ncc3c2)c1` [Example 41, 3-(2-amino-6-quinazolinyl)-4-methyl-N-(2-(methyloxy)-5-(trifluoromethyl)phenyl)benzamide], the IC50 is at most 25 µM.

`CN(C)CCCN(C)c1ccc(C(F)(F)F)cc1NC(=O)c1cc(-c2ccc3nc(N)ncc3c2)cn(C)c1=O` [Example 164, 5-(2-amino-6-quinazolinyl)-N-(2-((3-(dimethylamino)propyl)(methyl)amino)-5-(trifluoromethyl)phenyl)-1-methyl-2-oxo-1,2-dihydro-3-pyridinecarboxamide]: the concentration for half-maximal inhibition (IC50) was at most 25 µM.

On to `Cc1ccc(C(=O)Nc2cccc(C(F)(F)F)c2C)cc1-c1ccc2nc(NC3CC3)ncc2c1` [Example 37, 3-(2-(cyclopropylamino)-6-quinazolinyl)-4-methyl-N-(2-methyl-3-(trifluoromethyl)phenyl)benzamide], for which the IC50 was at most 25 µM.

With `Cc1ccc(C(=O)Nc2cc(C(F)(F)F)ccc2N2CC[C@@H](N(C)C)C2)cc1-c1ccc2nc(N)ncc2c1` [Example 75, 3-(2-amino-6-quinazolinyl)-N-(2-((3R)-3-(dimethylamino)-1-pyrrolidinyl)-5-(trifluoromethyl)phenyl)-4-methylbenzamide], the IC50 is at most 25 µM.

For the compound `Nc1ncc2cc(-c3ccc(F)c(NC(=O)C4CC4)c3)ccc2n1` [Example 486, N-(5-(2-amino-6-quinazolinyl)-2-fluorophenyl)cyclopropanecarboxamide], the IC50 was at most 25 µM.

Consider `Cc1ccc(C(=O)Nc2cccc(Cl)c2Cl)cc1-c1ccc2nc(N)ncc2c1` [Example 232, 3-(2-amino-6-quinazolinyl)-N-(2,3-dichlorophenyl)-4-methylbenzamide], for which the IC50 was at most 25 µM.

For `Cc1ccc(C(=O)Nc2cc(C(C)(C)C)ccc2C(C)(C)C)cc1-c1ccc2nc(N)ncc2c1` [Example 78, 3-(2-amino-6-quinazolinyl)-N-(2,5-bis(1,1-dimethylethyl)phenyl)-4-methylbenzamide], the IC50 was at most 25 µM.

Take `Cc1ccc(C(=O)Nc2ccc(C#N)c(C(F)(F)F)c2)cc1-c1ccc2nc(N)ncc2c1` [Example 125, 3-(2-amino-6-quinazolinyl)-N-(4-cyano-3-(trifluoromethyl)phenyl)-4-methylbenzamide]: the IC50 was at most 25 µM.

For the compound `CCN(CC)CCNC(=O)Nc1ccc(NC(=O)c2ccc(C)c(-c3ccc4nc(N)ncc4c3)c2)cc1C(F)(F)F` [Example 5, 3-(2-amino-6-quinazolinyl)-N-(4-((((2-(diethylamino)ethyl)amino)carbonyl)amino)-3-(trifluoromethyl)phenyl)-4-methylbenzamide], the IC50 was at most 25 µM.

As for `Nc1ncc2cc(-c3cc(C(=O)Nc4cccc(C(F)(F)F)c4)ccc3F)ccc2n1` [Example 137, 3-(2-amino-6-quinazolinyl)-4-fluoro-N-(3 (trifluoromethyl)phenyl)benzamide], the IC50 is at most 25 µM.

For `COc1ccc(OC)c(NC(=O)c2ccc(C)c(-c3ccc4nc(N)ncc4c3)c2)c1` [Example 148, 3-(2-amino-6-quinazolinyl)-N-(2,5-bis(methyloxy)phenyl)-4-methylbenzamide], the IC50 was at most 25 µM.

As to `CNc1ncc2cc(-c3cc(NC(=O)c4cccc(Cl)c4Cl)ccc3C)cnc2n1` [Example 201, 2,3-dichloro-N-(4-methyl-3-(2-(methylamino)pyrido[2,3-d]pyrimidin-6-yl)phenyl)benzamide], the IC50 is at most 25 µM.

The values are drawn from patent US20070054916A1, “Aryl nitrogen-containing bicyclic compounds and methods of use” (Amgen Inc., priority 2004, published 2007).
